Measurements from patent US20050008596A1, “Composition containing an oxidation-sensitive active principle and a polyisobutylene polymer” (L'OREAL, priority 2003, published 2005).

Assay: Accelerated storage test: decomposition of ascorbic acid in the composition after two months at 45° C., HPLC
Format: physicochemical
Settings: formulated in the presence of Lubrizol 5603, compared with conventional emulsifier; even in the presence of oxygen
Description: The aim of this test is to study the decomposition of an oxidation-sensitive hydrophilic active principle in a composition, after storage for two months at 45° C.
The degree of decomposition measured is given by the ratio: (C0-C2 months)/C0 with C0 being the concentration of ascorbic acid at t=0 and C2 months being the concentration of ascorbic acid at t=2 months.
The concentration of ascorbic acid is determined by the HPLC technique (Merck LaChrom system). The analytical conditions are as follows: • Column: Lichrosphere 100 RP18 (250 mm) • Eluant: 0.1M phosphate buffer, pH 2.1 • Flow rate: 1 ml/min • Detection at 257 nm. • Dilution of the sample such that the concentration of ascorbic acid is between 0.05 and 1 mg/ml.
The test was carried out with the composition Example 1, and with the composition of Comparative Example 1 which contains, instead of the polymer according to the invention, a conventionally used emulsifier, cyclopentasiloxane and PEG/PPG-18/18 dimethicone.

O=C1O[C@H]([C@@H](O)CO)C(O)=C1O [ascorbic acid]
Increase of stability of the ascorbic acid: 50%
